Data: ChEMBL document CHEMBL1201862, “PubChem BioAssay data set” (2004)
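Protocol summary: plate cells (96-well), add compound at 5 concentrations, incubate 48 h, interpolate endpoints linearly. GI50: concentration for 50% inhibition of growth.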 The source made the active and inactive calls. No stated cut-off is given here; in the data, active = GI50 up to about 1.1 µM and inactive = higher.

What was measured:
Experiment in all cases: DTP human tumour cell line panel, 48 h
A498 = system: A498
HCC 2998 = system: HCC 2998
HCT-15 = system: HCT-15
M14 = system: M14
MCF7 = system: MCF7
MDA-MB-231 = system: MDA-MB-231
MDA-N = system: MDA-N
MOLT-4 = system: MOLT-4
NCI-H226 = system: NCI-H226
NCI-H23 = system: NCI-H23
NCI-H460 = system: NCI-H460
RPMI-8226 = system: RPMI-8226
RXF 393 = system: RXF 393
SF-268 = system: SF-268
SN12C = system: SN12C
SNB-19 = system: SNB-19
SR = system: SR
UACC-257 = system: UACC-257
UACC-62 = system: UACC-62
UO-31 = system: UO-31

Compound	GI50 (A498)	GI50 (HCC 2998)	GI50 (HCT-15) [µM]	GI50 (M14)	GI50 (MCF7)	GI50 (MDA-MB-231)	GI50 (MDA-N)	GI50 (MOLT-4)	GI50 (NCI-H226)	GI50 (NCI-H23)	GI50 (NCI-H460)	GI50 (RPMI-8226)	GI50 (RXF 393)	GI50 (SF-268)	GI50 (SN12C)	GI50 (SNB-19)	GI50 (SR)	GI50 (UACC-257)	GI50 (UACC-62)	GI50 (UO-31)
COC1(OC)CCc2c(sc3ncnc(Nc4cccc(Br)c4)c23)C1	> 100 µM (inactive)	> 100 µM (inactive)	30.8	44.4 µM (inactive)	40.5 µM (inactive)	49.5 µM (inactive)	35.4 µM (inactive)	14.2 µM (inactive)	43.8 µM (inactive)	35.4 µM (inactive)	40.7 µM (inactive)	17 µM (inactive)	22.9 µM (inactive)	69.5 µM (inactive)	68.4 µM (inactive)	35.5 µM (inactive)	26.2 µM (inactive)	87.3 µM (inactive)	47.2 µM (inactive)	3.22 µM (inactive)
Cc1c(C)c2c(c(N)c1C#N)C(=O)N(CCN1CCNCC1)C2=O	22.2 µM (inactive)	31.6 µM (inactive)	35.6	33.8 µM (inactive)	34.8 µM (inactive)	19.3 µM (inactive)	40.9 µM (inactive)	30.5 µM (inactive)	29.1 µM (inactive)	–	29.9 µM (inactive)	38 µM (inactive)	22.4 µM (inactive)	34.1 µM (inactive)	32.5 µM (inactive)	49.3 µM (inactive)	25.6 µM (inactive)	37.7 µM (inactive)	23.2 µM (inactive)	28.6 µM (inactive)
Cc1n[nH]c(=O)n1/N=C/c1ccc([N+](=O)[O-])cc1	> 100 µM (inactive)	> 100 µM (inactive)	> 100	–	> 100 µM (inactive)	> 100 µM (inactive)	> 100 µM (inactive)	> 100 µM (inactive)	> 100 µM (inactive)	> 100 µM (inactive)	> 100 µM (inactive)	> 100 µM (inactive)	61.2 µM (inactive)	70.6 µM (inactive)	> 100 µM (inactive)	–	> 100 µM (inactive)	> 100 µM (inactive)	> 100 µM (inactive)	> 100 µM (inactive)
CC1=NN(c2cccc(Cl)c2)C2(SCC(=O)N2c2nc3ccccc3s2)/C1=C\c1ccccc1 (stereo unspecified)	23.2 µM (inactive)	14.2 µM (inactive)	16	23.7 µM (inactive)	23.6 µM (inactive)	24.4 µM (inactive)	20.9 µM (inactive)	21.2 µM (inactive)	19 µM (inactive)	20.2 µM (inactive)	15.3 µM (inactive)	18.7 µM (inactive)	21.6 µM (inactive)	21.4 µM (inactive)	–	–	22.3 µM (inactive)	21.9 µM (inactive)	–	20.1 µM (inactive)
C[n+]1ccccc1/C=C/c1ccc2c(c1)OCO2	> 10 µM (inactive)	> 10 µM (inactive)	> 10	> 10 µM (inactive)	> 10 µM (inactive)	> 10 µM (inactive)	> 10 µM (inactive)	> 10 µM (inactive)	> 10 µM (inactive)	> 10 µM (inactive)	> 10 µM (inactive)	> 10 µM (inactive)	> 10 µM (inactive)	> 10 µM (inactive)	> 10 µM (inactive)	> 10 µM (inactive)	> 10 µM (inactive)	> 10 µM (inactive)	> 10 µM (inactive)	–
O=C1CC(c2cccc([N+](=O)[O-])c2)C2(C(=O)NC(=S)NC2=O)C(c2cccc([N+](=O)[O-])c2)C1 (stereo unspecified)	> 100 µM (inactive)	20.2 µM (inactive)	25.5	21.9 µM (inactive)	26.8 µM (inactive)	16.6 µM (inactive)	43 µM (inactive)	66.4 µM (inactive)	21 µM (inactive)	29.2 µM (inactive)	35.6 µM (inactive)	59.7 µM (inactive)	–	15.9 µM (inactive)	19.9 µM (inactive)	21.8 µM (inactive)	49.4 µM (inactive)	89.7 µM (inactive)	23.2 µM (inactive)	47.2 µM (inactive)
O=c1[nH]cc(F)c(=O)[nH]1 [FLUOROURACIL]	10.2 µM (inactive)	1.6 µM (inactive)	–	46.5 µM (inactive)	1.75 µM (inactive)	489 µM (inactive)	8.07 µM (inactive)	14 µM (inactive)	250 µM (inactive)	12.2 µM (inactive)	1.05 µM (active)	4.91 µM (inactive)	54.1 µM (inactive)	51.4 µM (inactive)	24.9 µM (inactive)	116 µM (inactive)	4.36 µM (inactive)	95.7 µM (inactive)	13.9 µM (inactive)	5.64 µM (inactive)
